EC50 and CC50 data for 17 compounds are collected here from US11247965B2 (VenatoRx Pharmaceuticals, Inc., priority 2017, dated 2022).

As a reminder, the pEC50 is the EC50 on a negative log10 scale, so that one unit is a factor of ten. A word on the CC50: it is the concentration giving 50% cytotoxicity. The low end stands for harm at low concentration, the high end for better tolerance by the cells.

pEC50: −log10 of the molar value.

Data set [1] relates to HBV replication in HepAD38 cells. Nature of the data set: Anti-HBV activity in HepAD38 cells, extracellular HBV DNA by QPCR. The data set is classed as cell-based, HBV (genotype D, serotype ayw). As to conditions: Hepatitis B virus, HePAD38, 168 h, read-out: Anti-HBV EC50, HepAD38 cells, extracellular HBV DNA by QPCR, 7 days of incubation. On the procedure: The anti-HBV activity of the Capsid Assembly Modulators (CAMs) was evaluated in a cell based assay utilizing the human hepatoma cell line HepAD38 (Ladner, S K., et al., 1998). HepAD38 cells were derived from the parental line, HepG2, that were stably transfected with a construct containing an HBV genome (genotype D, serotype ayw) under the control of a tetracycline repressible CMV promoter. Upon removal of tetracycline, viral pre-genomic RNA (pgRNA) and mRNAs are expressed and infectious viral particles are assembled and secreted into the culture medium providing a reliable, robust system to measure multiple steps of the HBV life cycle. Disruption of capsid formation results in reduced levels of DNA-containing virus particles that are released into the culture supernatant. To quantify the effect of CAMs on HBV replication, we developed a sensitive QPCR-based assay that measures extracellular HBV DNA levels upon treatment of HepAD38 cells with various concentrations of test compounds.
HepAD38 cells were maintained in DMEM/F12 medium containing 10% FBS, 400 μg/mL G418 and 0.3 μg/mL tetracycline (tet+medium) to maintain repression of HBV replication. To evaluate each compound, HepAD38 cells were seeded into 24-well collagen coated culture plates (Corning BioCoat) at a density of 200,000 cells per well in 1 mL of tet+medium and allowed to adhere overnight at 37° C., 5% CO2 in a humidified incubator. The following day, test articles were subjected to half-logo serial dilutions, ranging from 30 μM to 10 nM, in 100% DMSO at 200× the desired final assay concentration. Tetracycline was removed from the cells by aspirating the tet+medium and washing the cells once with growth medium lacking tetracycline (tet-). Various concentrations of each compound were added to the appropriate wells (1:200 dilution) and the plates were returned to the incubator. Following 7 days of incubation, culture supernatants were harvested and HBV DNA levels were evaluated by QPCR and compared to the vehicle treated control wells (i.e. DMSO alone).
To quantify HBV DNA levels, cell culture supernatants were diluted 1:10 in sterile, nuclease-free water (Gibco). The diluted supernatants were subsequently added to a PCR master mix containing 1× Roche Light Cycler Master Mix, 0.5 μM forward primer, 0.5 μM reverse primer (Fwd:
0.2 μM Roche Universal Probe Library Probe 25. The volume was brought to 20 μL with nuclease-free water and amplification of the HBV target sequence was performed using a Roche LightCycler 480 QPCR instrument. PCR extended out to 45 cycles with each cycle consisting of a denaturation step at 95° C. for 10 sec., followed by an annealing step at 60° C. for 10 sec. and a brief extension step at 72° C. for 1 sec.
Extracellular HBV DNA levels, expressed in copies/mL, were determined by comparison to a standard curve (10^2-10^9 copies/mL) using the Roche LightCycler analysis software. These values were subsequently converted to percent inhibition of HBV replication by dividing the HBV DNA levels in the experimental samples with those obtained from the vehicle control (˜1-2×10^5 copies/mL). Potency, expressed as an EC50 (the effective concentration required to inhibit […] of HBV replication), was calculated from the dose-response curve using a 4-parameter non-linear regression analysis (GraphPad Prism). The nucleoside analog inhibitor entecavir was used as a positive control to validate each assay run. The EC50 value of entecavir in the HepAD38 assay was 0.5 nM, as previously reported in the literature.

Data set [2] can be described thus: In vitro cytotoxicity, MTT cell viability assay in HepG2 cells. It is filed as cell-based. As to conditions: human, Cytotoxicity CC50. On the procedure: To evaluate antiviral selectivity, the cytotoxic activity of each compound was determined using a standard cell viability assay performed on the parental HepG2 cell line. Cell viability was determined by measuring the conversion of 3-(4,5-dimethylthiazol-2-yl)-2,5-diphenyltetrazolium bromide (MTT) to the insoluble formazan salt crystal that occurs in live cells. Briefly, HepG2 cells were seeded in 96-well plates at a density of 20,000 cells per well in EMEM+10% FBS (complete growth medium) and allowed to adhere overnight in a 37° C., 5% CO2 humidified incubator. The next day, test agents were prepared by performing 8 half-log10 serial dilutions in 100% DMSO at 200× the final desired concentration in the assay. Compounds were tested over a range of concentrations from 30 μM to 1.0 nM in the assay. HepG2 cells were incubated in the presence of various concentrations of CAMs for 7 days in a 37° C., 5% CO2 humidified incubator. At the completion of the 7-day incubation period, MTT reagent was added to each well and the mixture was incubated for an additional 3-4 hours. At the completion of the incubation period, all wells were aspirated to remove the culture medium. The formazan crystals were solubilized from the cell monolayers with 100% DMSO. Plates were briefly mixed on an orbital shaker and absorbance was measured at 492 nm using a Perkin-Elmer EnVision multi-label plate reader. All absorbance values were converted to a percentage of the signal obtained from the vehicle treated controls. Absorbance values at 492 nm are directly proportional to the number of viable cells present in the sample. A CC50 value (cytotoxic concentration that results in loss of 50% cell viability) was calculated from the dose-response curve by 4-parameter, non-linear regression analysis using the GraphPad Prism software. The positive control compound, staurosporine, reduced the viability of HepG2 cells in a dose-dependent manner (CC50=100 nM).

As for `Cc1cc(NC(=O)c2ccc(F)c(C(F)(F)C(=O)N3[C@@H]4COC[C@H]3CN(S(N)(=O)=O)C4)c2)ccc1F` [Example 266, 3-(1,1-difluoro-2-oxo-2-((1R,5S)-7-sulfamoyl-3-oxa-7,9-diazabicyclo[3.3.1]nonan-9-yl)ethyl)-4-fluoro-N-(4-fluoro-3-methylphenyl)benzamide], in data set [1], the pEC50 is over 5.30. This compound showed a CC50 at 7 days in data set [2] of over 30 µM.

In the case of `Cc1ccc(C(=O)Nc2cc(F)c(F)c(F)c2)cc1C(F)(F)C(=O)N1[C@@H]2CC[C@H]1C[C@H](O)C2` [Example 205, 3-(1,1-difluoro-2-((1R,3s,5S)-3-hydroxy-8-azabicyclo[3.2.1]octan-8-yl)-2-oxoethyl)-4-methyl-N-(3,4,5-trifluorophenyl)benzamide], the pEC50 in data set [1] was 4.52 to 5.30. For the same compound, the CC50 at 7 days in data set [2] lay in the range of 5 to 30 µM.

As for `Cn1cc(C(=O)Nc2ccc(F)c(Cl)c2)cc1C(F)(F)C(=O)NCCO` [Example 138, N-(3-chloro-4-fluorophenyl)-5-(1,1-difluoro-2-((2-hydroxyethyl)amino)-2-oxoethyl)-1-methyl-1H-pyrrole-3-carboxamide], in data set [1], the pEC50 is 4.52 to 5.30. In data set [2], the CC50 at 7 days is over 30 µM.

Consider `O=C(Nc1cc(F)c(F)c(F)c1)c1ccc(F)c(C(F)(F)C(=O)N2CCC(O)C(F)(F)C2)c1` (stereo not shown) [Example 187, 3-(2-(3,3-difluoro-4-hydroxypiperidin-1-yl)-1,1-difluoro-2-oxoethyl)-4-fluoro-N-(3,4,5-trifluorophenyl)benzamide], for which the pEC50 in data set [1] was over 5.30. For the same compound, the CC50 at 7 days in data set [2] is 5 to 30 µM.

Turning to `O=C(Nc1ccc(F)c(F)c1)c1ccc(F)c(C(F)(F)C(=O)N2CCOCC2)c1` [Example 4, 3-(1,1-difluoro-2-morpholino-2-oxoethyl)-N-(3,4-difluorophenyl)-4-fluorobenzamide], the pEC50 in data set [1] is 4.52 to 5.30. Besides, the CC50 at 7 days in data set [2] lay in the range of 5 to 30 µM.

For the compound `Cc1cc(NC(=O)c2ccc(F)c(C(F)(F)C(=O)N3CCC(O)CC3)c2)cc(F)n1` [Example 160, 3-(1,1-difluoro-2-(4-hydroxypiperidin-1-yl)-2-oxoethyl)-4-fluoro-N-(2-fluoro-6-methylpyridin-4-yl)benzamide], the pEC50 in data set [1] was 4.52 to 5.30. Also, in data set [2], the CC50 at 7 days fell in the range of 5 to 30 µM.

With `Cc1cc(NC(=O)c2cc(F)cc(C(F)(F)C(=O)N3CCC(O)CC3)c2)ccc1F` [Example 93, 3-(1,1-difluoro-2-(4-hydroxypiperidin-1-yl)-2-oxoethyl)-5-fluoro-N-(4-fluoro-3-methylphenyl)benzamide], the pEC50 in data set [1] is over 5.30. Also, in data set [2], the CC50 at 7 days was in the range of 5 to 30 µM.

As to `O=C(Nc1ccc(F)c(F)c1)c1ccc(F)c(C(F)(F)C(=O)NC2CCOCC2)c1` [Example 5, 3-(1,1-difluoro-2-oxo-2-((tetrahydro-2H-pyran-4-yl)amino)ethyl)-N-(3,4-difluorophenyl)-4-fluorobenzamide], the pEC50 in data set [1] is 4.52 to 5.30. The CC50 at 7 days in data set [2] lay within 5 to 30 µM.

In the case of `Cc1cc(NC(=O)c2ccc(F)c(C(F)(F)C(=O)N3CCC(O)C(F)(F)C3)c2)cc(F)n1` (stereo not shown) [Example 251, 3-(2-(3,3-difluoro-4-hydroxypiperidin-1-yl)-1,1-difluoro-2-oxoethyl)-4-fluoro-N-(2-fluoro-6-methylpyridin-4-yl)benzamide], the pEC50 in data set [1] is 4.52 to 5.30. The CC50 at 7 days in data set [2] is 5 to 30 µM.

Consider `Cc1cc(NC(=O)c2ccc(F)c(C(F)(F)C(=O)N3CCc4nc(N)sc4C3)c2)ccc1F` [Example 242, 3-(2-(2-amino-6,7-dihydrothiazolo[5,4-c]pyridin-5(4H)-yl)-1,1-difluoro-2-oxoethyl)-4-fluoro-N-(4-fluoro-3-methylphenyl)benzamide], for which, in data set [1], the pEC50 was over 5.30. The CC50 at 7 days in data set [2] was 5 to 30 µM.

`Cc1cc(NC(=O)c2cccc(C(F)(F)C(=O)N3CCC(O)CC3)c2Cl)ccc1F` [Example 168, 2-chloro-3-(1,1-difluoro-2-(4-hydroxypiperidin-1-yl)-2-oxoethyl)-N-(4-fluoro-3-methylphenyl)benzamide]: in data set [1], the pEC50 is over 5.30. Besides, the half-maximal cytotoxic concentration (CC50) at 7 days in data set [2] lay within 5 to 30 µM.

In the case of `Cc1cc(NC(=O)c2ccc(F)c(C(F)(F)C(=O)N3[C@@H]4CC[C@H]3CC(O)(CN)C4)c2)ccc1F` (stereo partly drawn) [Example 276, 3-(2-((1R,5S)-3-(aminomethyl)-3-hydroxy-8-azabicyclo[3.2.1]octan-8-yl)-1,1-difluoro-2-oxoethyl)-4-fluoro-N-(4-fluoro-3-methylphenyl)benzamide], the pEC50 in data set [1] is over 5.30. In data set [2], this compound gave a 50% cytotoxic concentration (CC50) at 7 days of 5 to 30 µM.

As for `Cc1cc(NC(=O)c2ccc(F)c(C(F)(F)C(=O)N3CCc4nc(N)sc4CC3)c2)ccc1F` [Example 340, 3-(2-(2-amino-4,5,7,8-tetrahydro-6H-thiazolo[4,5-d]azepin-6-yl)-1,1-difluoro-2-oxoethyl)-4-fluoro-N-(4-fluoro-3-methylphenyl)benzamide], the pEC50 in data set [1] was over 5.30. Moreover, the CC50 at 7 days in data set [2] was in the range of 5 to 30 µM.

On to `CC(=O)NC1CCN(C(=O)C(F)(F)c2nc(C(=O)Nc3ccc(F)c(C)c3)ccc2F)CC1(C)C` (stereo not shown) [Example 305, 6-(2-(4-acetamido-3,3-dimethylpiperidin-1-yl)-1,1-difluoro-2-oxoethyl)-5-fluoro-N-(4-fluoro-3-methylphenyl)picolinamide], for which the pEC50 in data set [1] was over 5.30. The compound further displayed a CC50 at 7 days in data set [2] of 5 to 30 µM.

Regarding `Cc1cc(NC(=O)c2ccc(F)c(C(F)(F)C(=O)N3CCC4(CC3)NC(=O)NC4=O)c2)ccc1F` [Example 269, 3-(2-(2,4-dioxo-1,3,8-triazaspiro[4.5]decan-8-yl)-1,1-difluoro-2-oxoethyl)-4-fluoro-N-(4-fluoro-3-methylphenyl)benzamide], the pEC50 in data set [1] was over 5.30. The compound further gave a CC50 at 7 days in data set [2] of over 30 µM.

With `Cc1cc(NC(=O)c2ccc(F)c(C(F)(F)C(=O)N3C4CCC3CC(O)C4)c2)ccc1F` [Example 78, 3-(1,1-difluoro-2-((1R,3r,5S)-3-hydroxy-8-azabicyclo[3.2.1]octan-8-yl)-2-oxoethyl)-4-fluoro-N-(4-fluoro-3-methylphenyl)benzamide], the pEC50 in data set [1] is over 5.30. Also, the CC50 at 7 days in data set [2] lay in the range of 5 to 30 µM.

Turning to `Cc1cc(NC(=O)c2ccc(F)c(C(F)(F)C(=O)NC34CC5CC(CC3C5)C4)c2)ccc1F` [Example 271, 3-(1,1-difluoro-2-(((2R,3as,5S,6as)-hexahydro-2,5-methanopentalen-3a(1H)-yl)amino)-2-oxoethyl)-4-fluoro-N-(4-fluoro-3-methylphenyl)benzamide], in data set [1], the pEC50 was 4.52 to 5.30. In addition, the CC50 at 7 days in data set [2] lay within 5 to 30 µM.
